Measured values taken from US20260167637A1, “NLRP3 INFLAMMASOME INHIBITOR AND USE THEREOF” (TransThera Sciences (Nanjing), Inc., priority 2022, published 2026).

Experiments:
THP-1 cell NLRP3 = target: T1, THP-1 cell NLRP3 (Homo sapiens, UniProt Q96P20); test: Inhibitory activity against cell NLRP3 inflammasomes in THP-1 cells (LPS + nigericin, ELISA of supernatant); assay type: cell-based; details: PMA-differentiated THP-1 cells, LPS 500 ng/mL 3 h, compound 1 h, nigericin 30 min; human IL-10 (so in the source) in supernatant by ELISA
T1 construct: endogenous in cells; host or cells: THP-1 cells, PMA-differentiated, stimulated with LPS and nigericin
Method in brief: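 PMA-differentiated (10 ng/mL, 16 h) THP-1 cells primed with 500 ng/mL LPS for 3 h in serum-free medium, then compound for 1 h (DMSO stock diluted 1:1000). Nigericin added for 30 min at 37 °C; IL-1β (printed as IL-10) in supernatant measured by ELISA.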

[1] = Stability in canine liver microsomes; assay type: in vitro ADME; details: dog, canine liver microsomes 0.5 mg protein/mL, 1 μM test substance, β-NADPH 1 mM, 37° C.; for half-life at 1 μM: read-out: Canine t1/2
Description: (§1) Experimental Example 2: Evaluation of Stability of Compounds Disclosed Herein in Liver Microsomes
(§2) Composition of experimental incubation system:
(§3) An appropriate amount of the compound was precisely weighed out and dissolved in DMSO to prepare a 10.0 mM stock solution. The 10.0 mM stock solution was diluted with DMSO to 1.0 mM, and then diluted with phosphate buffer (containing 3 mM MgCl2) to prepare a 10 μM test substance working solution for later use (DMSO content in the reaction system: 0.1%).
(§4) An appropriate amount of β-NADPH was precisely weighed out and then prepared into a 5 mM β-NADPH working solution using phosphate buffer (containing 3 mM MgCl2) for later use.
(§5) (1) The liver microsomes (20 mg protein/mL) were taken out from a −80° C. freezer and pre-incubated on a 37° C. water bath thermostatic oscillator for 3 min to thaw for later use.
(§6) (2) A mixed solution of the incubation system (without β-NADPH) was prepared according to “composition of experimental incubation system” described above, and pre-incubated on a 37° C. water bath thermostatic oscillator for 2 min.
(§7) (3) Control group (without β-NADPH): 10 μL of phosphate buffer (containing 3 mM MgCl2) and 40 μL of the mixed solution of the incubation system in step (2) were taken and mixed, and the mixture was vortexed for 30 s and mixed well, resulting in a total reaction volume of 50 μL; the sample was duplicated. The mixture was placed on a 37° C. water bath thermostatic oscillator for incubation, and timing was started, with termination time points set at 0 min and 60 min.
(§8) (4) Sample group: 10 μL of the β-NADPH solution (5 mM) and 40 μL of the mixed solution in step (2) were taken and mixed, resulting in a total reaction volume of 50 μL; the mixture was vortexed for 30 s and mixed well; the sample was duplicated. The mixture was placed on a 37° C. water bath thermostatic oscillator for incubation, and timing was started, with termination time points set at 0 min, 5 min, 10 min, 20 min, 30 min, and 60 min.
(§9) (5) The mixture was vortexed for 5 min and then centrifuged at 4000 rpm for 10 min.
(§10) (6) 50 μL of the supernatant was taken and added to 150 μL of water, and the resulting mixture was vortexed and mixed well before LC/MS/MS analysis.
(§11) The half-life (t1/2) and clearance rate (CL) were calculated using the following first-order kinetic formula
(§12) Notes: k denotes the slope of the logarithm of the remaining amount of a compound vs. time, and Vd denotes apparent volume of distribution.

[2] = Pharmacokinetic study in male SD rats; assay type: in vivo; details: rat, plasma
Description: Experimental Example 4: Pharmacokinetic Study of Compounds in Male SD Rats
(§13) The compounds were prepared into solutions using a mixed vehicle composed of 5% dimethyl sulfoxide, 20% (30% solutol), and 75% normal saline. The compound solutions were intragastrically administered to male SD rats at a dose of 5.0 mg/kg, and the blood collection time points were: 15 min, 30 min, 1 h, 2 h, 4 h, 6 h, 8 h, 10 h, and 24 h.
as §13, with “intravenously injected into” for “intragastrically administered to”, “1.0” for “5.0”, “were: 5 min,” for “were:”, “4h,” for “4 h,”, “8h,” for “8 h,”
Intravenous catheterization was performed on the animals the day before the administration. After the administration, blood samples of about 300 μL were collected from the jugular vein and placed into anticoagulation tubes containing EDTA-K2. The blood samples were centrifuged at 5000 rpm at 4° C. for 10 min to give plasma samples. The plasma samples were prepared within 30 min after blood collection. The plasma samples were stored in a −80° C. freezer before testing.

[3] = Stability in rat liver microsomes; assay type: in vitro ADME; details: rat liver microsomes 0.5 mg protein/mL, 1 μM test substance, β-NADPH 1 mM, 37° C.; for half-life at 1 μM: read-out: Rat t1/2
Description: as §1, §2, §3, §4, §5, §6, §7, §8, §9, §10, §11, §12

[4] = Pharmacokinetic study in mice; assay type: in vivo, female C57BL/6J mice; details: female, C57BL/6J, mouse, plasma
Description: as §13, with “female C57BL/6J mice” for “male SD rats”, “10” for “5.0”, “h,” for “h, 10 h,”
as §13, with “intravenously injected into female C57BL/6J mice” for “intragastrically administered to male SD rats”, “5” for “5.0”, “were: 5 min,” for “were:”, “h,” for “h, 10 h,”
The samples to be tested were taken out from a −80° C. freezer, naturally thawed at room temperature, and then vortexed for 5 min.
Plasma samples of 10 μL from different individuals were accurately pipetted into 1.5 mL centrifuge tubes.
900 μL of a 100 ng/mL internal standard working solution (a solution of tolbutamide in acetonitrile) was added, and the mixture was well mixed.
After 5 min of vortexing, centrifugation was performed at 12,000 rpm for 5 min.
50 μL of the supernatant was accurately pipetted into a 96-well plate to which water was added in advance at 150 μL/well.
After 5 min of vortexing, LC-MS/MS analysis was performed.
The results of the test substance concentrations were output by Analyst 1.6.3 of AB Sciex.
Parameters such as mean, standard deviation, and coefficient of variation (excluding those output directly by Analyst 1.6.3) were calculated using Microsoft Excel. PK parameters were calculated using WinNonlin Phenoix 8.2 software NCA (Tmax was a median).

T1 sequence (Q96P20 whole entry): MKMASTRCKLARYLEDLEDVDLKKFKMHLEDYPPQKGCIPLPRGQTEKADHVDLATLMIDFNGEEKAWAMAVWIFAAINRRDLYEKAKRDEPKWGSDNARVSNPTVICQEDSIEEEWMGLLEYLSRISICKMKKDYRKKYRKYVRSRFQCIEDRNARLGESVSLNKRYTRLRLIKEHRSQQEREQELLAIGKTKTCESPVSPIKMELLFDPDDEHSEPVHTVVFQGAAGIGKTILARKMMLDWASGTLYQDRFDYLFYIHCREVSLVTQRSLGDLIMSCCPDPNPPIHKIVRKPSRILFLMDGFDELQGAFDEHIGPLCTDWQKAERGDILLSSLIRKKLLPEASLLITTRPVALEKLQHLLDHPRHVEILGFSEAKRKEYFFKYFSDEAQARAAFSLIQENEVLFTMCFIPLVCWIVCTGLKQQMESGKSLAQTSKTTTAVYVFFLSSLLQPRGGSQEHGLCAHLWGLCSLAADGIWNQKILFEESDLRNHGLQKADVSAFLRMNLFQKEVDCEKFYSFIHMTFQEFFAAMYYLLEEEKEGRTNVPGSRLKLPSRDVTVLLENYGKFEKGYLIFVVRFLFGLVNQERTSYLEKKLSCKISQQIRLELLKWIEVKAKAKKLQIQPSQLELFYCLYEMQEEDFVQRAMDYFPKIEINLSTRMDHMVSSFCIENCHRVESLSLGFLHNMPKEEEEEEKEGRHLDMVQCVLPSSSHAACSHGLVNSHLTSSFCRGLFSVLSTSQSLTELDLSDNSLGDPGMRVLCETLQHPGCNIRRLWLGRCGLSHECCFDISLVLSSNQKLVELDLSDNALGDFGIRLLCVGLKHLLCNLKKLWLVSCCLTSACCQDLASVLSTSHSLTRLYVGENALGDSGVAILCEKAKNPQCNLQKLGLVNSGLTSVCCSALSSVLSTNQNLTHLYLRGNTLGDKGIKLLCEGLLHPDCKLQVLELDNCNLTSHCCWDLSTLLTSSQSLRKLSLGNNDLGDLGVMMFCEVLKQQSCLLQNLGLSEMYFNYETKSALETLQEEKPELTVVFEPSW

`C#Cc1ccc(-c2nnc(N[C@@H]3CCCN(CCO)C3)c(=O)n2C)c(O)c1` [Compound 42, (R)-3-(4-ethynyl-2-hydroxyphenyl)-6-((1-(2-hydroxyethyl)piperidin-3-yl)amino)-4-methyl-1,2,4-triazin-5(4H)-one] showed an IC50 (THP-1 cell NLRP3) of 4.6 nM, a microsomal CLint at 1 μM [1] of 1.2 µL/min/mg and a half-life at 1 μM [1] of 19.2 h. The AUC(0-t) ([2]; iv 1 mg/kg, read-out: AUClast iv (0-24 h)) was 2490 ng·h/mL, the clearance ([2]; iv 1 mg/kg, read-out: Cl—obs iv (clearance rate) (converted)) was 6.65 mL/min/kg and the Vd ([2]; iv 1 mg/kg, read-out: Vss iv (distribution volume)) was 0.694 L/kg. It also gave a half-life ([2]; iv 1 mg/kg, read-out: tz1/2 iv (terminal half-life) (converted)) of 1.55 h, a bioavailability ([2]; po 5 mg/kg vs iv 1 mg/kg, read-out: F% (absolute bioavailability)) of 77.8% and a Tmax ([2]; po 5 mg/kg, median, read-out: Tmax po (time to peak plasma concentration)) of 1 h. It also gave an AUC(0-t) ([2]; po 5 mg/kg, read-out: AUClast po (0-24 h)) of 9720 ng·h/mL, a Cmax ([2]; po 5 mg/kg, read-out: Cmax po (peak concentration)) of 2490 ng/mL and a half-life ([2]; po 5 mg/kg, read-out: tz1/2 po (terminal half-life) (converted)) of 3.99 h. For the same compound, the microsomal CLint at 1 μM [3] was 4.2 µL/min/mg and the half-life at 1 μM [3] was 5.5 h.
Work on `C#Cc1ccc(-c2nnc(N[C@@H]3CCCN(CCO)C3)nc2C2CC2)c(O)c1` [Compound 100, (R)-2-(5-cyclopropyl-3-((1-(2-hydroxyethyl)piperidin-3-yl)amino)-1,2,4-triazin-6-yl)-5-ethynylphenol] yielded an IC50 (THP-1 cell NLRP3) of 2.4 nM, a microsomal CLint at 1 μM [1] of 2.8 µL/min/mg and a half-life at 1 μM [1] of 8.25 h. The AUC(0-t) ([4]; iv 5 mg/kg, read-out: AUClast iv (0-24 h)) was 4460 ng·h/mL, the clearance ([4]; iv 5 mg/kg, read-out: Cl—obs iv (clearance rate) (converted)) was 18 mL/min/kg and the Vd ([4]; iv 5 mg/kg, read-out: Vss iv (distribution volume)) was 2.41 L/kg. For the same compound, the half-life ([4]; iv 5 mg/kg, read-out: tz1/2 iv (terminal half-life) (converted)) was 1.65 h, the bioavailability ([4]; po 10 mg/kg vs iv 5 mg/kg, read-out: F% (absolute bioavailability)) was 68.4% and the Tmax ([4]; po 10 mg/kg, median, read-out: Tmax po (time to peak plasma concentration)) was 0.25 h. The AUC(0-t) ([4]; po 10 mg/kg, read-out: AUClast po (0-24 h)) was 6280 ng·h/mL, the Cmax ([4]; po 10 mg/kg, read-out: Cmax po (peak concentration)) was 1720 ng/mL and the half-life ([4]; po 10 mg/kg, read-out: tz1/2 po (terminal half-life) (converted)) was 3.63 h. It also gave a microsomal CLint at 1 μM [3] of 8.4 µL/min/mg and a half-life at 1 μM [3] of 2.75 h.
